# Reference: ChEMBL document CHEMBL1201862, “PubChem BioAssay data set” (2004)
# Activity calls are given as the source filed them.
# Key:
# [1] = inhibitors of clade B AD8 Env fusion, dose response, cell-based, cherry-pick (AID 652062); format: functional;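 further: luciferase signal from cell-cell fusion driven by HIV-1 clade B AD8 Env; potency is for inhibitors of fusion seen as a drop in luminescence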
# [2] = CEM21 lymphoblast cell cytotoxicity, dose response, cytotoxicity control for viral fusion inhibitor project, CellTiter-Glo luminescence, cherry-picked (AID 652042); format: functional, cell-based;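 further: potency for signal decrease meaning cytotoxicity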
# SN12K1 = assay: cells; format: functional; details: Homo sapiens
# [3] = target: SWI/SNF-related matrix-associated actin-dependent regulator of chromatin subfamily A member 2 (Homo sapiens, UniProt P51531); assay: Luminescence-based cell-based high throughput dose response assay to identify activators of the function of SWI/SNF related, matrix associated, actin dependent regulator of chromatin, subfamily a, member 2 (SMARCA2, BRM).; format: functional
# [4] = off-target signal loss in HeLa-CEM21 co-culture – HeLa F-luc CTL cells, cherry-picked, counter-screen for HIV-1 Env fusion inhibitor project, dose response (AID 652040); format: functional, cell-based;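 further: potency for signal decrease marking cytotoxic or nonspecific inhibition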
# [5] = ZM109 Env clade C HIV-1 fusion inhibitors, dose response, HeLa effector, CEM target cells, luciferase, cherry-pick (AID 652058); format: functional, cell-based
# [6] = target: Cyclin-dependent kinase 5/CDK5 activator 1 (Homo sapiens, UniProt Q00535); assay: CDK5/p35 kinase inhibitors, dose response, biochemical, cherry-picked samples, set 2 (AID 504545)
# Chain of Cyclin-dependent kinase 5/CDK5 activator 1 (Q00535 whole entry, the tested form may be a part): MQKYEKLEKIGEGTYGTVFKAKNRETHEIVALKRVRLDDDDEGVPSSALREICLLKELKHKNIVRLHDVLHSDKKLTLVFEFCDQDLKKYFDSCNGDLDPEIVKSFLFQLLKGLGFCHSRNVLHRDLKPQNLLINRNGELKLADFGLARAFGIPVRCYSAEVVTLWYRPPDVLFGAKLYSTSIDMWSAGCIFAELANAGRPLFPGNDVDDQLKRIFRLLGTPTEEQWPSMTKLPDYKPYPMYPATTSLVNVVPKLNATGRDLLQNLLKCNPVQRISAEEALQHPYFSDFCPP
# Chain of Cyclin-dependent kinase 5/CDK5 activator 1 (Q15078 whole entry, further chain, the tested form may be a part): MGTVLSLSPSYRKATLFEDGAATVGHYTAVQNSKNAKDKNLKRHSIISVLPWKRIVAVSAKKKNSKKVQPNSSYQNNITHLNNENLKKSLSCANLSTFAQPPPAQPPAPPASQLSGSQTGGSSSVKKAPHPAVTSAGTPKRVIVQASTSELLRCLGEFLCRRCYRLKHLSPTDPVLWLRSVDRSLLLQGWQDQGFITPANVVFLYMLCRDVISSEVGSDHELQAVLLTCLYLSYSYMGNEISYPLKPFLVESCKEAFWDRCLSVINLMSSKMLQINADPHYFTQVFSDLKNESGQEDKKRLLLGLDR
# [7] = inhibitors of HIV Env-driven cell fusion, dose response, cherry-pick (AID 652057); format: functional, cell-based
# [8] = Counterscreen for activators of the function of SWI/SNF related, matrix associated, actin dependent regulator of chromatin, subfamily a, member 2 (SMARCA2, BRM): Luminescence-based cell-based high throughput dose response assay to identify non-selective compounds using the VP16 reporter assay.; format: functional
# INS1 = assay: beta cell apoptosis inhibitors, cytokine rescue, dose response, luminescence, retest (AID 449756); format: functional, cell-based; details: Rattus norvegicus;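 further: cell death triggered by IL-1 beta plus TNF-alpha plus IFN-gamma mixture; protective hits raise ATP signal compared with cytokine alone wells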
# [9] = target: T1, Ubiquitin-conjugating enzyme E2 N (Homo sapiens, UniProt P61088); format: functional;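 further: Dose-response confirmation in a TR-FRET assay detecting UBC13-driven polyubiquitin chain formation, inhibition measured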
# T1 sequence (P61088 whole entry): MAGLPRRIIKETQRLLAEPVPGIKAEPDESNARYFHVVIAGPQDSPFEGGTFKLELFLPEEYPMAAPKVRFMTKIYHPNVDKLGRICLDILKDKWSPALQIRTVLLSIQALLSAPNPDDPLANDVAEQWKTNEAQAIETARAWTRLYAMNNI
# [10] = target: Neurotensin receptor type 1 (Homo sapiens, UniProt P30989); format: functional;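 further: Image-based confirmatory dose-response assay measuring agonist activity at NTR1; NTR1-expressing U2OS osteosarcoma cells imaged for beta-arrestin GFP spot formation; agonist potency where compounds increase beta-arrestin recruitment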
# [11] = Luminescence Cell-Based Dose Retest to Confirm Inhibitors of Cancer Stem Cells. [Related pubchem assays (depositor defined):AID2717, AID2721]; format: functional; details: Homo sapiens
# [12] = target: T2, Alkaline phosphatase, tissue-nonspecific isozyme (Homo sapiens, UniProt P05186)
# T2 sequence (P05186 whole entry): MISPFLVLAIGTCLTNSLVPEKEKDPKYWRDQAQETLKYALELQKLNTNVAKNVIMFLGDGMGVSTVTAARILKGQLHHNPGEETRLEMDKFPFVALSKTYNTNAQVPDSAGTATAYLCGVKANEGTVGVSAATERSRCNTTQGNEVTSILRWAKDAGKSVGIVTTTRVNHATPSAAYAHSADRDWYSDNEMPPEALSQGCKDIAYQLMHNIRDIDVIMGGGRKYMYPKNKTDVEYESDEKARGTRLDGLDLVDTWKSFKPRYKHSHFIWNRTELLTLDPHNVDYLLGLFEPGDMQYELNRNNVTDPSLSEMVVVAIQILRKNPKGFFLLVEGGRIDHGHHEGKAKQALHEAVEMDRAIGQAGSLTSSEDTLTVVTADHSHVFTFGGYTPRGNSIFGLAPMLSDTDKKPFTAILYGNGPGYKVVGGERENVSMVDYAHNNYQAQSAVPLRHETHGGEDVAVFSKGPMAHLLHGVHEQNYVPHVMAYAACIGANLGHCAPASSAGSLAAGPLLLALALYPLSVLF
# [13] = inhibitors of SNCA 5'UTR-driven reporter translation, confirmation, H4 neuroglioma cells, luminescence (AID 1988); format: functional, cell-based
# [14] = cytotoxicity toward NIH3T3 fibroblasts, dose response, counter-screen, cell-based, ATP luminescence, mouse fibroblasts (AID 2010); format: functional;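 further: cells exposed to compound for about 90 hours before reading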
# [15] = inhibitors of SNCA 5'UTR-driven translation, confirmation, luminescence, H4 neuroglioblastoma cells, dose confirmation (AID 2454); format: functional, cell-based;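 further: H4 neuroglioblastoma cells carrying an alpha-synuclein 5'UTR luciferase reporter; potency for inhibition of the luciferase signal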
# [16] = inhibitors of firefly luciferase expression or activity, dose response, H4 neuroglioma cells, luminescence (AID 1990); format: functional, cell-based
# [17] = luciferase reporter signal reduction – luminescence, H4-C neuroglioblastoma cells, dose response (AID 2458); format: functional, cell-based;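 further: H4 neuroglioblastoma cells stably carrying a luciferase reporter gene fusion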
# [18] = inhibitors of intracellular T. cruzi replication, confirmation, NIH3T3 host cells, beta-gal luminescence (AID 2044); format: functional, cell-based;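 further: intracellular parasites grown in NIH/3T3 mouse fibroblasts as host cells; luminescent beta-galactosidase reporter signal from transgenic T. cruzi replicating inside host cells; inhibitors lower the luminescence signal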
# cells [19] = format: functional, cell-based
# [20] = Luminescence Cell-Based Dose Response HTS to Identify Inhibitors of 5'UTR Stem-Loop Driven Prion Protein mRNA Translation in H4 Neuroglioblastoma Cells. [Related pubchem assays: 1827 (Project Summary), 1813 (Primary HTS)]; format: functional
# Paired box protein Pax-8 = Paired box protein Pax-8 (Homo sapiens, UniProt Q06710); assay: inhibitors of PAX8-driven TPO luciferase reporter, dose response, RMG-I cells, cherry-pick (AID 687027); format: functional, cell-based;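 further: luciferase reporter driven by Pax8 target thyroperoxidase promoter measured by SteadyGlo luminescence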
# [21] = target: Melanin-concentrating hormone receptor 1 (Homo sapiens, UniProt Q99705); assay: Late-stage fluorescence-based counterscreen for antagonists of the G-protein coupled receptor 7 (GPR7): cell-based dose response assay to identify antagonists of the melanin-concentrating hormone receptor 1 (MCHR1). [Related pubchem assays (depositor defined):AID1861, AID1880, AID1952, AID2148, AID2251, AID2257, AID485339]; format: functional;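 further: stimulated with 30 nM MCH peptide agonist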
# [22] = target: Lysosomal acid glucosylceramidase (Homo sapiens, UniProt P04062); assay: Dose response cell-based high throughput screening assay to identify enhancers of beta-glucosidase activity. [Related pubchem assays: 784 ]; format: functional
# X-box-binding protein 1 = X-box-binding protein 1 (Homo sapiens, UniProt P17861); format: functional, Cricetulus griseus;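 further: confirmatory dose-response counter-screen serving a CHOP assay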
# Cytochrome P450 2C9 = Cytochrome P450 2C9 (Homo sapiens, UniProt P11712); details: Potency
# Cytochrome P450 3A4 = Cytochrome P450 3A4 (Homo sapiens, UniProt P08684); details: Potency;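 further: confirmatory qHTS run detecting inhibitors and substrates of CYP3A4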
# Chain of Cytochrome P450 3A4 (P08684 whole entry): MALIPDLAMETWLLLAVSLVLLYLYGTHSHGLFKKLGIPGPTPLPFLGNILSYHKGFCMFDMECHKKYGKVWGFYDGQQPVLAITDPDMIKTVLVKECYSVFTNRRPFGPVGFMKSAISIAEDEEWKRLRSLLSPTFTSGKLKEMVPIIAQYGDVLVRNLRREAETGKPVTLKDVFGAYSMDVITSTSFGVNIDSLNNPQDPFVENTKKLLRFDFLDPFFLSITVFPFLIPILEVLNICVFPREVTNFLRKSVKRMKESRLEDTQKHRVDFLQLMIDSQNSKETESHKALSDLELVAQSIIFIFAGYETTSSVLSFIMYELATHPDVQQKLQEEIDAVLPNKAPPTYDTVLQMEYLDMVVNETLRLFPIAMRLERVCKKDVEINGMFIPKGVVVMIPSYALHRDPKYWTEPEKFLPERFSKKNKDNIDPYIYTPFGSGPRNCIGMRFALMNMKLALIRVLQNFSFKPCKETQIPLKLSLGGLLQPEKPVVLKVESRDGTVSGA
# [23] = target: Female germline-specific tumor suppressor gld-1 (Caenorhabditis elegans, UniProt Q17339); assay: inhibitors of GLD-1 binding to TGE RNA, dose response, biochemical, fluorescence polarization, C. elegans (AID 2802);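 further: fluorescence polarization of labeled TGE RNA bound by purified gld-1 protein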
# Protein Rev = Protein Rev (Human immunodeficiency virus type 1 group M subtype B (isolate HXB2)(HIV-1), UniProt P04618); assay: inhibitors of Rev binding to RRE RNA, dose response, biochemical, fluorescence polarization, HIV-1 (AID 434976); set-up: species or system Human immunodeficiency virus 1
# Chain of Protein Rev (P04618 whole entry): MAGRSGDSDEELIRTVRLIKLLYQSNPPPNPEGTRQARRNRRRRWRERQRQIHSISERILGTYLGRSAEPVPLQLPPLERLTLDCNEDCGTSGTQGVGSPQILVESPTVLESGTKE
# [24] = target: C-C chemokine receptor type 6 (Homo sapiens, UniProt P51684); assay: CCR6 receptor antagonists, dose response, cell-based, luminescent beta-arrestin readout (AID 504728); format: functional
# Beta-galactosidase = Beta-galactosidase (Escherichia coli, UniProt Q8VNN2); assay: beta-galactosidase enzyme inhibitors and activators, dose response, artefact control for CCR6 antagonist project, biochemical, E. coli enzyme, set 3 (AID 504712); format: functional
# [25] = target: Heat shock protein HSP 90-alpha (Homo sapiens, UniProt P07900); format: functional, organism-based
# Vero = assay: cells; format: functional; details: Chlorocebus sabaeus
# Major prion protein = Major prion protein (Homo sapiens, UniProt P04156); format: functional, cell-based
# Cytochrome P450 2C19 = Cytochrome P450 2C19 (Homo sapiens, UniProt P33261); assay: Cytochrome panel assay with activity outcomes. Panel member name: p450-cyp2c19 Compounds with AC50 equal or less than 10 uM are considered active; format: functional; details: read-out: AC50
# cells [26] = assay: cells
# [27] = target: Peroxisome proliferator-activated receptor gamma/Nuclear receptor corepressor 2 (Homo sapiens, UniProt P37231+Q9Y618); format: functional
# [28] = target: Photoreceptor-specific nuclear receptor (Homo sapiens, UniProt Q9Y5X4); format: functional;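 further: potency for compounds that break the NR2E3 corepressor complex and count as activators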
# Wee1-like protein kinase = Wee1-like protein kinase (Homo sapiens, UniProt P30291); assay: G2/M cell cycle arrest in HeLa, late-stage follow-up, mechanism study for Wee1 degradation inhibitor project, FACS, panel member Wee1 Degradation (AID 2088)
# [29] = target: G2/mitotic-specific cyclin-B1 (Homo sapiens, UniProt P14635); assay: G2/M cell cycle arrest in HeLa, late-stage follow-up, mechanism study for Wee1 degradation inhibitor project, FACS, panel member Cyclin B Degradation (AID 2088)
# [30] = target: T3, Voltage-gated N-type calcium channel alpha-1B subunit/Amyloid beta A4 precursor protein-binding family A member 1 (Homo sapiens, UniProt Q00975+Q02410); assay: disruptors of Mint-PDZ/N-type channel peptide interaction – biochemical, HTRF, SAR follow-up (AID 2489); format: functional
# T3 sequence (Q00975 whole entry): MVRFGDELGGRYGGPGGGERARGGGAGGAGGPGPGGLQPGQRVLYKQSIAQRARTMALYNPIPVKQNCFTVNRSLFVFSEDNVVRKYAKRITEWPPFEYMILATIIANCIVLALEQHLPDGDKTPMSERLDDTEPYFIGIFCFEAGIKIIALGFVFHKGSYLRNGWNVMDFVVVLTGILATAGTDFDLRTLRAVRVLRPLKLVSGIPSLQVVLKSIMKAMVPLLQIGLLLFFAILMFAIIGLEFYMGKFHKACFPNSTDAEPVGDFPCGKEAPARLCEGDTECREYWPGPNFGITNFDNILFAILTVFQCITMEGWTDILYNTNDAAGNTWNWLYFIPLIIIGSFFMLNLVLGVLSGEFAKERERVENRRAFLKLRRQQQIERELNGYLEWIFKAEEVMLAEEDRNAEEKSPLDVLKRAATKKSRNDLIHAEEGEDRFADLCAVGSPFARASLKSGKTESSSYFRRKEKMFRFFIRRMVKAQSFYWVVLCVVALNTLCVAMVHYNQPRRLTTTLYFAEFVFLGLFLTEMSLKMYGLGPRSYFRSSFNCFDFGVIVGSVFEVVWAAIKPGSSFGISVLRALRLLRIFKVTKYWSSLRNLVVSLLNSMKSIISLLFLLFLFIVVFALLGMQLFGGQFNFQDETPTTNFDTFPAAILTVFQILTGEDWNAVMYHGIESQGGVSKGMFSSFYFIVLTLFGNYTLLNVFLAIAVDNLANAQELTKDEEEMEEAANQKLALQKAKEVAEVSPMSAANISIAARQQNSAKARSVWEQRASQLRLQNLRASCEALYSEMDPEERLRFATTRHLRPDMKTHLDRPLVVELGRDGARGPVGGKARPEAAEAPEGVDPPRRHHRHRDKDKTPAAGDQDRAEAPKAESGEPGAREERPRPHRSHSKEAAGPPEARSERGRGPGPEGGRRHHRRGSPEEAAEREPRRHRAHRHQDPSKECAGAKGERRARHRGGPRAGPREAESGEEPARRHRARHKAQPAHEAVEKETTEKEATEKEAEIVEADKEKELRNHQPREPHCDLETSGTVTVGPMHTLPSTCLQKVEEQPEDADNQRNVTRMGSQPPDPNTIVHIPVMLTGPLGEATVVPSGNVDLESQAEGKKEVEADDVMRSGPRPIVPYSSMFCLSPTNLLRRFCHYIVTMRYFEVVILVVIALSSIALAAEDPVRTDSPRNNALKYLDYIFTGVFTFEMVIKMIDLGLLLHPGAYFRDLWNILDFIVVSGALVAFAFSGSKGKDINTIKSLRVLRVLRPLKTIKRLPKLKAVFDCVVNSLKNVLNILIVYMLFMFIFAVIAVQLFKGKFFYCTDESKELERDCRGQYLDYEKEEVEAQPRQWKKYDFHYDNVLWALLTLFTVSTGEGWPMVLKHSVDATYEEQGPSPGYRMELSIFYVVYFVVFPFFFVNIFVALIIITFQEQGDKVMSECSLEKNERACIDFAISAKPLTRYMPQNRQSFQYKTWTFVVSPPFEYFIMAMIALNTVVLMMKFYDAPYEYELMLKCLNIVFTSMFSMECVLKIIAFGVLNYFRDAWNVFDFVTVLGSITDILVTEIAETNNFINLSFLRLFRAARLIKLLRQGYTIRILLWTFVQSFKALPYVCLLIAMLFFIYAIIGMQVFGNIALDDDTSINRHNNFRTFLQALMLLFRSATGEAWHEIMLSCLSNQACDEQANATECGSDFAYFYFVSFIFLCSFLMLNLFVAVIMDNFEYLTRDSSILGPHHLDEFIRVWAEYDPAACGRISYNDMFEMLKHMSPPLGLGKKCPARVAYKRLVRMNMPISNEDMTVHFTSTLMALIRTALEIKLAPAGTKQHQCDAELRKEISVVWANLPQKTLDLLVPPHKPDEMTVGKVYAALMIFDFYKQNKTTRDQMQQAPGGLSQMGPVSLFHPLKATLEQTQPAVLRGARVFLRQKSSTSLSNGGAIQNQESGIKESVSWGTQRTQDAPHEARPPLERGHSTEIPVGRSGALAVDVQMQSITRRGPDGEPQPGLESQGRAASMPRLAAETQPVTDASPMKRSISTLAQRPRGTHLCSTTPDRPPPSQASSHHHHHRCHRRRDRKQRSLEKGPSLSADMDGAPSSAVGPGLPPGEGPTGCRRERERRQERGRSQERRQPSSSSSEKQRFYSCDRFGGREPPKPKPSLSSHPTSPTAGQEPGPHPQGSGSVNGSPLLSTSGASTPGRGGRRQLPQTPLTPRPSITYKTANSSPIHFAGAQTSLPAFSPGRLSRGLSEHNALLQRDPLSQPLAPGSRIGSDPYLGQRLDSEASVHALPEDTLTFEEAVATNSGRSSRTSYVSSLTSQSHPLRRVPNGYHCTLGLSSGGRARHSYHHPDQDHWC
# T3 sequence (Q02410 whole entry): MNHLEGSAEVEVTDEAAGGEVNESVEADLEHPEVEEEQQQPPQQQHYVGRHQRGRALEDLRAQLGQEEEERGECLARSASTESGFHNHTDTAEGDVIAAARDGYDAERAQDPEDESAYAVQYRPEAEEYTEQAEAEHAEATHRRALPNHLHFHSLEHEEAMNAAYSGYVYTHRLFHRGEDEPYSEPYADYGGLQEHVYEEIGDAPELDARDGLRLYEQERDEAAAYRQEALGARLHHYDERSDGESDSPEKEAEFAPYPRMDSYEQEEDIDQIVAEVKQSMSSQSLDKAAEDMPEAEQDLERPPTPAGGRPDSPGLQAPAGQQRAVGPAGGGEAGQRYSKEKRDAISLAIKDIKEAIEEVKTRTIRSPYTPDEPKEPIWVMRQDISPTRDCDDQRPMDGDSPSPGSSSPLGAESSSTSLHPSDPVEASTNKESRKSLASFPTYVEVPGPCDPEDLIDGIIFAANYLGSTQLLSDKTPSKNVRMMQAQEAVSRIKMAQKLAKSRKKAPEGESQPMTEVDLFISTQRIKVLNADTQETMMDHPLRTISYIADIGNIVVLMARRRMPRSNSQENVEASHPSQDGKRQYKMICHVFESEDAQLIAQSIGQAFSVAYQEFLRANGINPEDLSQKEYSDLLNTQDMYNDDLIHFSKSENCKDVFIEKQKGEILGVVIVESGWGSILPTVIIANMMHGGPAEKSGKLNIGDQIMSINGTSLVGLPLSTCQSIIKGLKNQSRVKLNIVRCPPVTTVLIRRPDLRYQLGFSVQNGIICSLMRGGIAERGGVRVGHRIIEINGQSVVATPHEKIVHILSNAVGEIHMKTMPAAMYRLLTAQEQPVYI
# [31] = target: T3, Voltage-gated N-type calcium channel alpha-1B subunit/Amyloid beta A4 precursor protein-binding family A member 1; assay: disruptors of Mint-PDZ/N-type channel peptide interaction – biochemical, HTRF, set 2, SAR follow-up (AID 434980); format: functional
# [32] = target: Neuropeptide Y receptor type 1 (Homo sapiens, UniProt P25929); assay: Fluorescence-based counterscreen for agonists of NPY-Y2: cell-based high-throughput dose response assay for agonists of NPY-Y1.; format: functional
# [33] = target: Eukaryotic translation initiation factor 4E (Mus musculus, UniProt P63073); assay: eIF4E–eIF4G protein interaction inhibitors, dose response, biochemical, TR-FRET (AID 855); format: functional;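 further: potency for disrupting eIF4E binding to eIF4GI seen as loss of FRET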
# Chain of Eukaryotic translation initiation factor 4E (P63073 whole entry): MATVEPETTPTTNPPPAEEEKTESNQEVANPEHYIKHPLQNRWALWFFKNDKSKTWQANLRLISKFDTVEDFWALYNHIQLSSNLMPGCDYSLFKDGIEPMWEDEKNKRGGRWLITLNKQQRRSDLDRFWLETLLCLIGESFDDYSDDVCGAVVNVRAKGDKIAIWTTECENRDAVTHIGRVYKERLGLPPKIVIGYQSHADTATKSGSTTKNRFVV
# HEK293 = assay: Fluorescence-based counterscreen for potentiators or agonists of NPY-Y2: cell-based high-throughput dose response assay to identify inhibitors of cyclic nucleotide gated ion channel (CNGC) activity. In this assay, the parental HEK293 cell line transfected with a cyclic-nucleotide gated ion channel (CNGC)-based cAMP sensor is used to measure inhibition of isoproterenol-induced CNGC activity by test compound.; format: functional; details: Homo sapiens;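 further: stimulus is 1 µM isoproterenol at EC100 plus PDE inhibitor Ro 20-1724 at 25 µM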
# [34] = target: Neuropeptide Y receptor type 2 (Homo sapiens, UniProt P49146); assay: Fluorescence-based cell-based high-throughput dose response assay for agonists of NPY-Y2. [Related pubchem assays: 1703 (Screening assay (CNGC inhibitors).), 1359 (Screening assay (NPY-Y2 potentiators or agonists).), 1304 (Screening assay (NPY-Y1 potentiators or agonists).), 1710 (Screening assay (NPY-Y2 agonists).), 1791 (Summary AID.)]; format: functional
# Chain of Neuropeptide Y receptor type 2 (P49146 whole entry): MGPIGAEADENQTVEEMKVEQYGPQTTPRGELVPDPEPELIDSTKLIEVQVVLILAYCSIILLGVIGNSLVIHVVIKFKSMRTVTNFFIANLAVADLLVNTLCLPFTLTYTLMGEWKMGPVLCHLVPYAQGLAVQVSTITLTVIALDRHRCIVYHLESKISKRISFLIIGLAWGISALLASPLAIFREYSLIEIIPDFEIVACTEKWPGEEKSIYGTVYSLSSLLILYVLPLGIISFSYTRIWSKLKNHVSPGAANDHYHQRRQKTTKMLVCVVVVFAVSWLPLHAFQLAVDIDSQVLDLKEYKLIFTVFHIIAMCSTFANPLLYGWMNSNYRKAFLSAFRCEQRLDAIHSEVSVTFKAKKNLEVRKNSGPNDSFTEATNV
smiles,measurement,setting,value
N#Cc1cn(C2OC(CO)C(O)C2O)c2ncnc(N)c12 (stereo unspecified),AC50,[1],0.621 µM (active)
same,AC50,[2],< 0.26 µM (active)
same,GI50,SN12K1,0.0425 µM (active)
same,EC50,[3],> 91.2 µM (inactive)
same,AC50,[4],1.39 µM (active)
same,AC50,[5],< 0.26 µM (active)
same,AC50,[6],5.59 µM (active)
same,AC50,[7],< 0.26 µM (active)
same,EC50,[8],> 91.2 µM (inactive)
CC(C)C[C@H]1CN=C(Nc2ccccc2)N1CC1CCC(C(C)(C)C)CC1 (stereo partly specified),AC50,INS1,6.54 µM (active)
same,IC50,[9],> 20 µM (inactive)
same,EC50,[10],15.7 µM (active)
same,AC50,[11],5.02 µM (active)
CCOC1Cc2ccccc2N(C(N)=O)c2ccccc21 (stereo unspecified),EC50,[12],> 100 µM (not active)
CC(=O)OC(C)(C)/C=C/C(=O)C(C)(O)C1[C@H](O)C[C@@]2(C)C3CC=C4C(CC[C@@H](O)C4(C)C)[C@]3(CO)C(=O)C[C@]12C (stereo partly specified),EC50,[13],< 0.1 µM (active)
same,EC50,[14],8.65 µM (active)
same,EC50,[15],0.082 µM (active)
same,EC50,[16],< 0.1 µM (active)
same,EC50,[17],0.083 µM (active)
same,EC50,[18],0.33 µM (active)
same,EC50,cells [19],0.08 µM (active)
same,EC50,[20],< 0.1 µM (active)
same,AC50,Paired box protein Pax-8,< 0.26 µM (active)
Cc1ccc(-n2ncc(Cl)c(Oc3ccccc3)c2=O)cc1,IC50,[21],13.7 µM (inactive)
CC(C)Oc1cccc(C(=O)Nc2ccccc2N2CCOCC2)c1,EC50,[22],> 50 µM (not active)
CC(C)(C)c1ccc(NC(=O)Nc2ccc(F)cc2)cc1,Absolute IC50 (XBP1),X-box-binding protein 1,10 µM
CCCCCCCC#Cc1ccccc1C(NC(=O)OC)C(C(=O)OC)C(=O)OC (stereo unspecified),AC50,Cytochrome P450 2C9,7.94 µM (inconclusive)
same,AC50,Cytochrome P450 3A4,3.16 µM (inconclusive)
Nc1c(-c2cccc([N+](=O)[O-])c2)nc2ccccn12,IC50,[23],7.64 µM (active)
same,IC50,Protein Rev,> 75.5 µM (not active)
O=[N+]([O-])c1cccc(C=NNc2ccc3ccccc3n2)c1O,IC50,[24],> 66.6 µM (inactive)
same,IC50,Beta-galactosidase,> 66.6 µM (inactive)
same,AC50,[25],2.76 µM (active)
same,CC50,Vero,1.44 µM (active)
CCc1c(C(=O)O)[nH]c2ccc(Br)cc12,IC50,Major prion protein,5.95 µM (active)
same,AC50,Cytochrome P450 2C19,11.2 µM (inconclusive)
same,IC50,cells [26],> 138 µM (inactive)
same,IC50,[27],7.33 µM (active)
same,IC50,[28],6.41 µM (active)
CC(C)c1ccc(NC(=O)CCCOc2cc(=O)n(C)c3ccccc23)cc1,EC50,Wee1-like protein kinase,> 49.7 µM (inactive)
same,EC50,[29],> 49.7 µM (inactive)
O=C(NCCc1ccccn1)c1cc(-c2ccco2)nc2ccccc12,IC50,[30],> 56.8 µM (inactive)
same,IC50,[31],> 56.8 µM (inactive)
N#C/C(=N\Nc1ccc(Cl)cc1)C(=O)c1ccccc1,AC50,[1],24.5 µM (active)
same,AC50,INS1,3.07 µM (active)
same,EC50,[32],9.38 µM (active)
same,IC50,[33],> 64 µM (inactive)
same,AC50,[4],42 µM (active)
same,EC50,HEK293,7.25 µM (active)
same,AC50,[7],39.2 µM (active)
same,EC50,[34],9.92 µM (active)
